Assays:
[1] = Liver microsomal stability in rat liver microsomes; format: in vitro ADME; conditions: 0.5 mg protein/mL, 1 μM compound, 37° C.
Experimental: Experimental Example 2: Evaluation of Liver Microsomal Stability of Compounds Disclosed Herein
Test samples: the compounds disclosed herein and the compound I-8 of international patent application WO2017019723A1 (prepared by referring to the examples for synthesis in WO2017019723A1) having the following structural formula: […]
An appropriate amount of the compound was precisely weighed out and dissolved in DMSO to prepare a 5.0 mM stock solution. The 5.0 mM stock solution was diluted to 1.0 mM with DMSO, and then diluted with water to 10 μM compound working solution for later use (DMSO content in the reaction system: 0.1% v/v).
• (1) The liver microsomes (20 mg protein/mL) were taken out from a −80° C. refrigerator, pre-incubated on a 37° C. water bath thermostatic oscillator for 3 min, and thawed for use. • (2) A mixed solution of the incubation system (without compound and D-NADPH) was prepared according to “composition of the experimental incubation system” described above, and pre-incubated on a 37° C. water bath thermostatic oscillator for 2 min. • (3) Control group (without D-NADPH): 30 μL of water and 30 μL of compound working solution (10 μM) were added to 240 μL of the mixed solution of the incubation system in step (2), and the mixture was vortexed for 30 s and mixed well; the total volume of the mixture was 300 μL; the sample was duplicated. The mixture was placed on a 37° C. water bath thermostatic oscillator for incubation, and timing was started; the sampling was conducted at 0 min and 60 min. • (4) Sample group: 70 μL of […] solution (10 mM) and 70 μL of compound working solution (10 μM) were added to 560 μL of the mixed solution in step (2), and the total volume of the mixture was 700 μL; the mixture was vortexed for 30 s and mixed well; the sample was duplicated. The mixture was placed on a 37° C. water bath thermostatic oscillator for incubation, and timing was started; the sampling was conducted at 0 min, 5 min, 10 min, 20 min, 30 min and 60 min. • (5) The mixture was vortexed for 3 min, and centrifuged at 4000 rpm for 10 min. • (6) 50 μL of the supernatant was taken and added to 150 μL of water, and the resulting mixture was vortexed and mixed well before LC/MS/MS analysis.
The half-life (t1/2) and clearance (Cl) were calculated using the following first-order kinetic formula:
Vd=1/protein content in liver microsomes
Note: k denotes the slope of the logarithm of the remaining amount of a compound vs. time, Vd denotes apparent volume of distribution, and C0 denotes compound concentration at 0 h.
Experiment on Stability of the Compounds Disclosed Herein in Rat Liver Microsomes

[2] = biological target: T1, PDE9A2 enzyme (Homo sapiens, UniProt O76083); assay: PDE9 enzymatic evaluation; format: biochemical; conditions: fluorescence reading 480 nm/535 nm
T1 construct: purchased BPS 60090
Experimental: Experimental Example 1: PDE9 Enzymatic Evaluation
Test samples: the compounds disclosed herein, prepared according to the corresponding examples of the present invention.
Preparation of the compounds: Compounds were formulated into 10 mM compound stock solution in DMSO for long term storage. The obtained compound stock solution was 100-fold diluted with DMSO to give 100 μM compound mother liquor, which was 3-fold diluted with DMSO to give 8-10 concentration gradients of diluted compound mother liquor (100×).
Incubation with compound: Diluted compound mother liquor was pipetted into a 384-well plate using an ultramicro-liquid pipetting system (Echo); 200 nL of the diluted compound mother liquor and 10 μL of PDE9A2 enzyme solution were added to each compound well; after centrifugation at 1000 rpm for 1 min, the mixtures were incubated at room temperature for 15 min. Subsequently, 10 μL of the substrate mixture was added, and after centrifugation at 1000 rpm for 1 min, the resulting mixture was incubated at room temperature with oscillating for 30 min. Finally, stop solution was added to end the reaction, and the resulting reaction system was incubated at room temperature with oscillating for 60 min. In the maximum reading well (Max), the compound was replaced by solvent; in the minimum reading well (Min), the compound and the enzyme solution were replaced by solvent.
Detection: the fluorescence readings (F) at 480 nm/535 nm were detected using a microplate reader.
Calculation: The inhibition rate was calculated according to the following formula and IC50 was fitted using GraphPad Prism 5.0: […]

[3] = biological target: T2, human PDE9 (Homo sapiens, UniProt O76083); conditions: background statement; cited from earlier work
[4] = biological target: T2, human PDE9; conditions: substrate of PDE9, background statement; read-out: binding constant (Km); cited from earlier work

T1 sequence (O76083 1-533 isoform O76083-2): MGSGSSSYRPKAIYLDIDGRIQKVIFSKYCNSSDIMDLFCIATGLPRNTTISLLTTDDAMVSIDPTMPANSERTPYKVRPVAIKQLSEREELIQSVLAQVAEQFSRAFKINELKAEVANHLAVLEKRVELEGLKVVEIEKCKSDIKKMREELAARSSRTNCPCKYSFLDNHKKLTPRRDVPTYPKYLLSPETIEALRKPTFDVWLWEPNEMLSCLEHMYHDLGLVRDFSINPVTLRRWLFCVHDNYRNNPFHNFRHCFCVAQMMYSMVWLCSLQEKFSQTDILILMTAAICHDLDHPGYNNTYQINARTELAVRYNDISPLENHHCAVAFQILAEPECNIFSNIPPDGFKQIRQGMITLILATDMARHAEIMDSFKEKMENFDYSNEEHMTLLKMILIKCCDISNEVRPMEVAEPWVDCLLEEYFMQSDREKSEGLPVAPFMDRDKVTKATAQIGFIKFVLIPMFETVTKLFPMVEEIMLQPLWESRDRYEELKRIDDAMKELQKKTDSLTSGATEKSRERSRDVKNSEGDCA
T2 sequence (O76083 whole entry): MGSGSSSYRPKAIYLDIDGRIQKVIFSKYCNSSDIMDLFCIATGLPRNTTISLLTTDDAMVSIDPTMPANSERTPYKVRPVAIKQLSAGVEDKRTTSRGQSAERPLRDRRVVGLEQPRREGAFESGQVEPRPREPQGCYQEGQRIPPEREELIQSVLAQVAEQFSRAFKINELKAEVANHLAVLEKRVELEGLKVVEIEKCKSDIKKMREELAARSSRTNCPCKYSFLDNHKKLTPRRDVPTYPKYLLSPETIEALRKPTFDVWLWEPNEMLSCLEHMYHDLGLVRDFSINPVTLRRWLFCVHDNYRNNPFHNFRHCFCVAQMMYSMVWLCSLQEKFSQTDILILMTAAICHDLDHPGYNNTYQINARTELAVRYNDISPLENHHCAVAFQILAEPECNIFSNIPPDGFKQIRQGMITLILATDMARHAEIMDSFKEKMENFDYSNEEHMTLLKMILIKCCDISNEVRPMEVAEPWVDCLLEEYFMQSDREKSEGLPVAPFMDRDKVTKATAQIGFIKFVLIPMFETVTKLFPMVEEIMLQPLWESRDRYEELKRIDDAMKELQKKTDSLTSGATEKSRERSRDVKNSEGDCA

Compound	half-life at 1 μM [1] [h]	microsomal CLint at 1 μM [1] [µL/min/mg]	IC50 [2] [nM]	inhibitory activity against PDE9 [3]	further results
CNC(=O)c1ccc2[nH]c(=O)c(C#N)c(N3CCC4(CC3)CC4)c2c1 [Compound 96, 3-cyano-N-methyl-2-oxo-4-(6-azaspiro[2.5]octan-6-yl)-1,2-dihydroquinoline-6-carboxamide]	3.22	7.2	5	–	–
CCc1ccc2[nH]c(=O)c(C#N)c(N3CCC(C)(OC)CC3)c2c1 [Compound 107, 6-ethyl-4-(4-methoxy-4-methylpiperidin-1-yl)-2-oxo-1,2-dihydroquinoline-3-carbonitrile]	–	–	8	–	–
COC1(C)CCN(c2c(C#N)c(=O)[nH]c3ccc(C(C)(C)O)cc23)CC1 [Compound 109, 6-(2-hydroxypropan-2-yl)-4-(4-methoxy-4-methylpiperidin-1-yl)-2-oxo-1,2-dihydroquinoline-3-carbonitrile]	7.7	3	15	–	–
COC1(C)CCN(c2c(C#N)c(=O)[nH]c3ccc(C(O)C4CC4)cc23)CC1 (centres unmarked) [Compound 130, 6-(cyclopropyl(hydroxy)methyl)-4-(4-methoxy-4-methylpiperidin-1-yl)-2-oxo-1,2-dihydroquinoline-3-carbonitrile]	2.82	8.2	2	–	–
COCCOc1ccc2[nH]c(=O)c(C#N)c(N3CCC(C)(OC)CC3)c2c1 [Compound 145, 4-(4-methoxy-4-methylpiperidin-1-yl)-6-(2-methoxyethoxy)-2-oxo-1,2-dihydroquinoline-3-carbonitrile]	2.13	10.8	12	–	–
COC1(C)CCN(c2c(C#N)c(=O)[nH]c3ccc(C)cc23)CC1 [Compound 158, 4-(4-methoxy-4-methylpiperidin-1-yl)-6-methyl-2-oxo-1,2-dihydroquinoline-3-carbonitrile]	–	–	12	–	–
COC1(C)CCN(c2c(C#N)c(=O)[nH]c3ccc(C(C)C)cc23)CC1 [Compound 179, 6-isopropyl-4-(4-methoxy-4-methylpiperidin-1-yl)-2-oxo-1,2-dihydroquinoline-3-carbonitrile]	–	–	18	–	–
COC1(C)CCN(c2c(C#N)c(=O)[nH]c3ccc(Br)cc23)CC1 [Compound 180, 6-bromo-4-(4-methoxy-4-methylpiperidin-1-yl)-2-oxo-1,2-dihydroquinoline-3-carbonitrile]	0.955	24.2	8	–	–
N#Cc1c(N2CCCCCC2)c2ccccc2[nH]c1=O [Compound I-8, reference compound]	0.792	29.2	–	–	–
CC(C)Cn1c(=O)n(C)c(=O)c2[nH]cnc21 [IBMX]	–	–	–	no inhibitory activity or low inhibitory activity	–
CC(=O)Nc1ccc(-c2c[nH]c(=O)cn2)cc1 [SKF94120]	–	–	–	no inhibitory activity or low inhibitory activity	–
Nc1nc2c(ncn2[C@@H]2O[C@@H]3COP(=O)(O)O[C@H]3[C@H]2O)c(=O)[nH]1 [cGMP, cyclic guanosine monophosphate]	–	–	–	–	Km [4]: 0.17 µM
OCCN(CCO)c1nc(N2CCCCC2)c2nc(N(CCO)CCO)nc(N3CCCCC3)c2n1 [dipyridamole]	–	–	–	no inhibitory activity or low inhibitory activity	–
COc1ccc(C2CNC(=O)C2)cc1OC1CCCC1 (centres unmarked) [rolipram]	–	–	–	no inhibitory activity or low inhibitory activity	–
CCOC(=O)C1=C[C@]2(CC)CCCN3CCc4c(n1c1ccccc41)[C@@H]32 [vinpocetine]	–	–	–	no inhibitory activity or low inhibitory activity	–

From patent US20220081409A1, “PDE9 INHIBITOR AND USE THEREOF” (NANJING TRANSTHERA BIOSCIENCES CO., LTD., priority 2019, published 2022)
